In patent US20160106711A1, “3-3-Di-Substituted-Oxindoles as Inhibitors of Translation Initiation” (President and Fellows of Harvard College, priority 2012, published 2016):

Each molecule was assayed on KLN (assay: Cell growth assay (sulforhodamine B), KLN cells). Details: Mus musculus, 120 h, 5 days, SRB.
Type: cell-based, mouse
Experimental: […] Plates were then incubated with 0.4% SRB in 1% acetic acid for 1 h, washed with 1% acetic acid to remove the unbound dye, and air-dried. The bound dye was solubilized by addition of 10 mM Tris (pH 10), and the absorbance was determined in a Titertek Multiscan plate reader at 490 nm. The data calculations were carried out as described (the values for mean±SD of data from replicate wells are calculated): data are expressed in terms of % T/C [(OD of treated cells/OD of control cells)×100], as a measure of cell viability and survival in the presence of test materials. Calculations are also made for the concentration of test agents giving a T/C value of 50%, or 50% growth inhibition (IC50). With the SRB assay, a measure is made of the cell population density at time 0 (the time at which drugs are added) from two extra reference plates of inoculated cells fixed with TCA just prior to drug addition to the test plates. Thus, we have three measurements: control optical density (C), test optical density (T), and optical density at time zero (T0). The calculation is 100×[(T−T0)/(C−T0)]. If T is less than T0, cell killing has occurred and can be calculated from 100×[(T−T0)/T0]. Thus, for each drug-cell line combination, a dose-response curve is generated and three levels of effect are calculated.

SMILES	IC50 [µM]
O=C1Nc2c(ccc(F)c2F)C1(c1ccc(O)cc1)c1ccc(O)cc1 [SD132]	> 20
CN(C)CCOc1ccc(C(C)(C)C)cc1C1(c2ccccc2)C(=O)Nc2ccccc21 (stereo not drawn) [Sd028, 3-(5-tert-Butyl-2-(2-(dimethylamino)ethoxy)phenyl)-3-phenylindolin-2-one]	1.2 ± 0.3
CC(C)(C)c1ccc(OCCN2CCOCC2)c(C2(c3ccccc3)C(=O)Nc3ccccc32)c1 (stereo not drawn) [Sd029, 3-(5-tert-Butyl-2-(2-morpholinoethoxy)phenyl)-3-phenylindolin-2-one]	6.8 ± 3.7
CC(C)(C)c1ccc(OCCN2CCNCC2)c(C2(c3ccccc3)C(=O)Nc3ccccc32)c1 (stereo not drawn) [Sd049, 33-{5-tert-butyl-2-[2-(piperazin-1-yl)ethoxy]phenyl}-3-phenylindol-2-one]	1.2 ± 0.3
COc1ccc(C2(c3cc(C(C)(C)C)ccc3O)C(=O)Nc3ccccc32)cc1 (stereo not drawn) [Sd086]	15.7 ± 1.1
CC(C)(C)c1ccc(O)c(C2(c3ccc(O)cc3)C(=O)Nc3ccccc32)c1 (stereo not drawn) [Sd096]	17.3 ± 1.8

Each molecule was assayed on CRL-2813 (assay: Cell growth assay (sulforhodamine B), CRL-2813 cells). Details: Homo sapiens, CRL2813, 120 h, 5 days, SRB.
Type: cell-based, human
Experimental: (§1) Adherent mouse (KLN) and human solid tumor cells (CRL-2351, and CRL-2813) were plated in 96-well plates and maintained for 5 days in the presence of 0.54 to 6 μM of individual compound, and cell proliferation was measured by the sulforhodamine B (SRB) assay as described in ref. 11: briefly, cells were fixed in 10% cold trichloroacetic acid at 4° C. for 1 h, extensively washed with double-distilled H2O and air-dried. Plates were then incubated with 0.4% SRB in 1% acetic acid for 1 h, washed with 1% acetic acid to remove the unbound dye, and air-dried. The bound dye was solubilized by addition of 10 mM Tris (pH 10), and the absorbance was determined in a Titertek Multiscan plate reader at 490 nm. The data calculations were carried out as described (the values for mean±SD of data from replicate wells are calculated): data are expressed in terms of % T/C [(OD of treated cells/OD of control cells)×100], as a measure of cell viability and survival in the presence of test materials. Calculations are also made for the concentration of test agents giving a T/C value of 50%, or 50% growth inhibition (IC50). With the SRB assay, a measure is made of the cell population density at time 0 (the time at which drugs are added) from two extra reference plates of inoculated cells fixed with TCA just prior to drug addition to the test plates. Thus, we have three measurements: control optical density (C), test optical density (T), and optical density at time zero (T0). The calculation is 100×[(T−T0)/(C−T0)]. If T is less than T0, cell killing has occurred and can be calculated from 100×[(T−T0)/T0]. Thus, for each drug-cell line combination, a dose-response curve is generated and three levels of effect are calculated.

SMILES	IC50 [µM]
O=C1Nc2c(ccc(F)c2F)C1(c1ccc(O)cc1)c1ccc(O)cc1 [SD132]	3.74 ± 0.28
CN(C)CCOc1ccc(C(C)(C)C)cc1C1(c2ccccc2)C(=O)Nc2ccccc21 (stereo not drawn) [Sd028, 3-(5-tert-Butyl-2-(2-(dimethylamino)ethoxy)phenyl)-3-phenylindolin-2-one]	2.4 ± 0.4
CC(C)(C)c1ccc(OCCN2CCOCC2)c(C2(c3ccccc3)C(=O)Nc3ccccc32)c1 (stereo not drawn) [Sd029, 3-(5-tert-Butyl-2-(2-morpholinoethoxy)phenyl)-3-phenylindolin-2-one]	2.4 ± 0.3
CC(C)(C)c1ccc(OCCN2CCNCC2)c(C2(c3ccccc3)C(=O)Nc3ccccc32)c1 (stereo not drawn) [Sd049, 33-{5-tert-butyl-2-[2-(piperazin-1-yl)ethoxy]phenyl}-3-phenylindol-2-one]	12.8 ± 0.8
COc1ccc(C2(c3cc(C(C)(C)C)ccc3O)C(=O)Nc3ccccc32)cc1 (stereo not drawn) [Sd086]	2.75 ± 0.1
CC(C)(C)c1ccc(O)c(C2(c3ccc(O)cc3)C(=O)Nc3ccccc32)c1 (stereo not drawn) [Sd096]	4 ± 0.28

These molecules were tested on CRL-2351 (assay: Cell growth assay (sulforhodamine B), CRL-2351 cells). Details: Homo sapiens, 120 h, 5 days, SRB.
Type: cell-based, human
Experimental: as §1

SMILES	IC50 [µM]
O=C1Nc2c(ccc(F)c2F)C1(c1ccc(O)cc1)c1ccc(O)cc1 [SD132]	> 20
CN(C)CCOc1ccc(C(C)(C)C)cc1C1(c2ccccc2)C(=O)Nc2ccccc21 (stereo not drawn) [Sd028, 3-(5-tert-Butyl-2-(2-(dimethylamino)ethoxy)phenyl)-3-phenylindolin-2-one]	1.4 ± 0.3
CC(C)(C)c1ccc(OCCN2CCOCC2)c(C2(c3ccccc3)C(=O)Nc3ccccc32)c1 (stereo not drawn) [Sd029, 3-(5-tert-Butyl-2-(2-morpholinoethoxy)phenyl)-3-phenylindolin-2-one]	3.35 ± 0.3
CC(C)(C)c1ccc(OCCN2CCNCC2)c(C2(c3ccccc3)C(=O)Nc3ccccc32)c1 (stereo not drawn) [Sd049, 33-{5-tert-butyl-2-[2-(piperazin-1-yl)ethoxy]phenyl}-3-phenylindol-2-one]	0.9 ± 0.1
COc1ccc(C2(c3cc(C(C)(C)C)ccc3O)C(=O)Nc3ccccc32)cc1 (stereo not drawn) [Sd086]	2.65 ± 0.1
CC(C)(C)c1ccc(O)c(C2(c3ccc(O)cc3)C(=O)Nc3ccccc32)c1 (stereo not drawn) [Sd096]	2

Each molecule was assayed on eIF2•GTP•Met-tRNAi ternary complex (assay: Ternary complex assay (ATF-4 assay), dual luciferase firefly/renilla ratio). Details: Mus musculus, 10 uM, read-out: ATF-4 Xmax.
Type: cell-based, mouse
Description: For assay development, a bi-directional plasmid was designed in which a common promoter/enhancer complex drives the transcription of firefly luciferase (F-luc) ORF fused to the 5′ untranslated region (UTR) of ATF-4, and of the renilla luciferase (R-luc) ORF fused to a 90-nucleotide 5′ UTR derived from the plasmid (FIG. 6A). Because the tetracycline-regulated transactivator ((tTA), required for driving transcription from this vector) is not normally expressed in the mammalian cells, stable KLN cancer cells were constructed that expressed tTA (KLN-tTA).
The KLN-tTA colonies that drove expression of reporter genes from pBISA-DL plasmid were selected by transient transfection and dual luciferase assay. One of these KLN-tTA cell lines was transfected with the pBISA-DL^(ATF-4) expression vector, stable colonies were selected by dual luciferase assay and expanded.
Plasmids and Ternary Complex Assay
(ATF-4 Assay). Briefly, bi-directional mammalian expression vector pBI (Clontech, CA) was modified to expand the multiple cloning sites (MCSs) and designated thereafter as pBISA. This vector contains seven copies of the tetracycline-regulated transactivator response element (TRE), which together act as core promoter/enhancer. The TRE is flanked on both sides by minimal human cytomegalovirus (CMV) minimal promoters allowing bi-directional transcription and two MCSs. Firefly and renilla luciferases were subcloned into MCS-I and MCS-II, respectively. This plasmid, designated pBISA-DL, transcribes two mRNAs that contain the 90 nucleotide plasmid derived 5′UTR (same sequence in both mRNAs), and the ORF encoding either firefly or renilla luciferase followed by a polyadenylation sequence as described in Ziegeler, G.; Ming, J.; Koseki, J. C.; Sevinc, S.; Chen, T.; Ergun, S.; Qin, X.; Aktas, B. H. J. Biol. Chem. 2010, 285, 15408 hereby incorporated by reference. This plasmid was further modified by inserting the 5′UTR of ATF-4 into MCS-I in front of the firefly luciferase mRNA. Transcription from this direction generates an mRNA that contains the firefly luciferase ORF preceded by a 5′UTR composed of 90 nucleotides derived from the plasmid and 267 nucleotides derived from the 5′UTR of ATF-4 mRNA. Transcription from the other direction generates an mRNA that contains the renilla luciferase ORF proceeded only by the 90-nucleotide plasmid-derived sequence in the 5′UTR. This expression plasmid is called pBISA-DL(ATF-4). In the dual luciferase assay, cells expressing firefly and renilla luciferases were lysed and the extracts assayed with a Dual-Glo Luciferase assay kit, per manufacturer's instruction (Promega Inc., Madison, Wis.). The data calculations were carried out as the ratio of firefly to renilla luciferase signal as described in Chen, T.; Ozel, D.; Qiao, Y.; Harbinski, F.; Chen, L.; Denoyelle, S.; He, X.; Zvereva, N.; Supko, J. G.; Chorev, M.; Halperin, J. A.; Aktas, B. H. Nat. Chem. Biol. 2011, 7, 610 hereby incorporated by reference.

SMILES	maximal fold induction at 10 µM
CN(C)CCOc1ccc(C(C)(C)C)cc1C1(c2ccccc2)C(=O)Nc2ccccc21 (stereo not drawn) [Sd028, 3-(5-tert-Butyl-2-(2-(dimethylamino)ethoxy)phenyl)-3-phenylindolin-2-one]	2.69 ± 0.36

Same assay, conditions: Mus musculus, 20 uM, read-out: ATF-4 Xmax

SMILES	maximal fold induction at 20 µM
CC(C)(C)c1ccc(OCCN2CCNCC2)c(C2(c3ccccc3)C(=O)Nc3ccccc32)c1 (stereo not drawn) [Sd049, 33-{5-tert-butyl-2-[2-(piperazin-1-yl)ethoxy]phenyl}-3-phenylindol-2-one]	2.1 ± 0.65

Same assay, conditions: Mus musculus, 80 uM, read-out: ATF-4 Xmax

SMILES	maximal fold induction at 80 µM
O=C1Nc2c(ccc(F)c2F)C1(c1ccc(O)cc1)c1ccc(O)cc1 [SD132]	8.8 ± 1.97

Same assay, conditions: Mus musculus, at 40 uM, read-out: ATF-4 Xmax @ 40 μM

SMILES	maximal fold induction at 40 µM
CC(C)(C)c1ccc(OCCN2CCOCC2)c(C2(c3ccccc3)C(=O)Nc3ccccc32)c1 (stereo not drawn) [Sd029, 3-(5-tert-Butyl-2-(2-morpholinoethoxy)phenyl)-3-phenylindolin-2-one]	4 ± 0.1
COc1ccc(C2(c3cc(C(C)(C)C)ccc3O)C(=O)Nc3ccccc32)cc1 (stereo not drawn) [Sd086]	5.6 ± 0.5
CC(C)(C)c1ccc(O)c(C2(c3ccc(O)cc3)C(=O)Nc3ccccc32)c1 (stereo not drawn) [Sd096]	1.69 ± 0.6
